{"source": "paper PMC7647782", "about": "“Cytotoxic, Antioxidant, and Metabolic Enzyme Inhibitory Activities of Euphorbia cyparissias Extracts” (Oxidative Medicine and Cellular Longevity, 2020)", "key": {"β-glucosidase": {"target": "β-glucosidase", "assay": "β-Glucosidase activity inhibition", "type": "biochemical", "protocol": "[20], respectively. […] The enzymes β-glucosidase, α-amylase, and XO were purchased from Sigma-Aldrich (St. Louis, MO, USA). The β-glucosidase activity was determined by measuring the 4-nitrophenol […] (4-NPGP) product. […] Then, the mixture was incubated with color reagent NPGP (180 μL) for more 15 min at 37°C. […] The activity was evaluated by measuring absorbance at 405 nm with a microplate reader. The same equation used to measure α-amylase activity was used to measure that of β-glucosidase."}, "[1]": {"assay": "DPPH radical scavenging assay", "protocol": "In every sample of E. cyparissias extract, the antioxidant activity was evaluated by using the DPPH radical scavenging and reducing power assays as previously described in the literature. To measure DPPH activity, a sample of 0.5 mL for each concentration was mixed with an equal volume of DPPH ethanolic solution and incubated in darkness for 1 h at ambient temperature. The activity was determined by comparing the absorbance at 519 nm of DPPH radicals to that of the control (containing all reagents except the extract)."}, "SPLA2-IB": {"target": "SPLA2-IB", "assay": "Phospholipase activity inhibition, stingray PLA2-IB", "type": "biochemical", "conditions": "stingray group IB phospholipase", "method": "The phospholipase activities were measured based on the De Araújo and Radvanyi method [24]. The inhibitory effect of various extracts was determined using samples of dromedary, stingray, and porcine digestive group IB phospholipases (PLA2-IB). A 10 μL sample of ethanolic or aqueous extract was mixed with 10 μL of PLA2-GIB and preincubated for 20 min at room temperature. The mixture was added to 1 mL of the substrate, which was composed of lecithin (3.5 mM) solubilized in 100 mM NaCl, 3 mM sodium taurodeoxycholate, 10 mM CaCl2, and 0.055 mM red phenol at a pH of 7.6. […] The inhibition percentage was calculated by measuring residual activity compared to negative control assay (absence of extract). The IC50 values were determined from the curve.\nValues represent the mean ± SD of triplicate measurements."}, "dromedary lipase (DrPL)": {"target": "dromedary lipase (DrPL)", "assay": "Lipase activity inhibition, dromedary lipase", "type": "biochemical", "conditions": "mean ± SD of triplicate", "excerpt": "Dromedary (DrPlA2-IB), porcine (PPPlA2-IB), and stingray group IB phospholipases (SPLA2-IB) were purified and prepared as described in our previous works and De Haas et al., respectively. Dromedary (DrPL), stingray (SPL), and porcine (PPL) lipases were also purified according to protocols optimized in previous works. The enzymes β-glucosidase, α-amylase, and XO were purchased from Sigma-Aldrich (St. Louis, MO, USA).\nThe inhibitory effect of ethanolic and aqueous extracts of E. cyparissias on dromedary, stingray, and porcine lipase activities were investigated at different concentrations ranging from 0 to 100 μg/mL. The assay was carried out by incubating 12 IU of enzymes (50 μL) with 10 μL of extract. A positive control using commercial orlistat (Xenical, Hoffmann-La Roche) was run in parallel in the same conditions. Inhibition of lipase activities was expressed as the percentage of residual activity after incubation with Euphorbia extracts compared to the negative control ([…]). Lipase activities were measured using tributyrin as a substrate under the optimal conditions for each enzyme, as previously described. The IC50 values correspond to the half maximal inhibitory concentration.\nThe activities of these lipases were measured using the pH-stat technique on olive oil emulsion at optimal conditions for enzyme activity. […]"}, "chymotrypsin": {"target": "chymotrypsin (Bos taurus, UniProt P00766)", "assay": "Protease activity inhibition, chymotrypsin", "type": "biochemical", "conditions": "unit as in head of Table 4", "protocol": "(§1) The trypsin and chymotrypsin activity inhibition was performed as described by Kunitz. An aliquot of 1 mL of ethanolic or water extract was incubated for 15 min at 37°C with an equal volume of the enzyme. The mixture was then incubated for 30 min at 37°C with 2 mL of 2% casein as the substrate. The reaction was stopped by adding 2.5 mL of 5% trichloroacetic acid (TCA). The activity was determined by measuring the absorbance of the mixture at 280 nm, after 15 min of centrifugation at 15 000 rpm. Ethanol was used as a negative control and Bowman-Birk Inhibitor (BBI) as a positive control. The protease activity inhibition was also expressed as inhibition percentage, which was determined by comparing the results with those of a control experiment."}, "trypsin": {"target": "T1, trypsin (Bos taurus, UniProt P00760)", "T1 construct": "gene PRSS1", "T1 sequence (P00760 24-246)": "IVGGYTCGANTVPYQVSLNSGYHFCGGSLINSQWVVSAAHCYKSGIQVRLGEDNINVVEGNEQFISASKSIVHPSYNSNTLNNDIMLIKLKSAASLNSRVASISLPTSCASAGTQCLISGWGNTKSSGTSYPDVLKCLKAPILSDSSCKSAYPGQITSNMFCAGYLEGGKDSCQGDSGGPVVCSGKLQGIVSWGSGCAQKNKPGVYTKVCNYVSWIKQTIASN", "assay": "Protease activity inhibition, trypsin", "type": "biochemical", "conditions": "unit as in head of Table 4", "protocol": "as §1"}}, "data": [{"molecule": "C[C@H]1O[C@H](O[C@H]2[C@H](O)[C@@H](O)[C@@H](O[C@H]3[C@H](O)[C@@H](O)C(O)O[C@@H]3CO)O[C@@H]2CO)[C@H](O)[C@@H](O)[C@@H]1N[C@H]1C=C(CO)[C@@H](O)[C@H](O)[C@H]1O", "note": "(stereo partly shown) [Acarbose]", "values": [{"measurement": "IC50 β-Glucosidase", "setting": "β-glucosidase", "result": "26.2 ± 2.5", "unit": "µg/mL"}]}, {"molecule": "Cc1cc(C(C)(C)C)c(O)c(C(C)(C)C)c1", "note": "[BHT, butylated hydroxytoluene]", "values": [{"measurement": "DPPH scavenging activity", "setting": "[1]; at a concentration of 1 mg/mL", "result": "95.3 ± 0.4", "unit": "%"}, {"measurement": "DPPH IC50", "setting": "[1]; from Figure 5(b), unit as printed for BHT", "result": "~54", "unit": "µg/mL"}]}, {"molecule": "CC1(C)CC[C@]2(C(=O)O)CC[C@]3(C)C(=CC[C@@H]4[C@@]5(C)CC[C@H](O)C(C)(C)[C@@H]5CC[C@]43C)[C@@H]2C1", "note": "[Oleanolic acid, oleanolic acid]", "values": [{"measurement": "IC50 SPLA2-IB", "setting": "SPLA2-IB", "result": "82.8 ± 5.7", "unit": "µg/mL"}]}, {"molecule": "CCCCCCCCCCC[C@@H](C[C@@H]1OC(=O)[C@H]1CCCCCC)OC(=O)[C@H](CC(C)C)NC=O", "note": "[Orlistat, orlistat]", "values": [{"measurement": "IC50 DrPL", "setting": "dromedary lipase (DrPL)", "result": "97.2 ± 2.5", "unit": "µg/mL"}]}, {"molecule": "BBI: Bowman-Birk Inhibitor, positive control for trypsin and chymotrypsin inhibition", "values": [{"measurement": "IC50 Chymotrypsin", "setting": "chymotrypsin", "result": "0.0108 ± 0.0004", "unit": "µg/mL"}]}, {"molecule": "BBI: Bowman-Birk Inhibitor, positive control for trypsin and chymotrypsin inhibition (protein, seven intrachain disulfides; Check residues are the known reactive sites Lys16 and Leu43 in mat) DDESSKPCCDQCACTKSNPPQCRCSDMRLNSCHSACKSCICALSYPAQCFCVDITDFCYEPCKPSEDDKEN", "values": [{"measurement": "IC50 Trypsin", "setting": "trypsin", "result": "0.0115 ± 0.0004", "unit": "µg/mL"}]}]}
